Data taken from article PMC6494957 (Frontiers in Microbiology, 2019).
Read-outs that look alike come from different tables or passages of the source.

What was measured:
A. baumannii ATCC 12457 = assay: microbe, parasite or virus in culture; conditions: for MIC: Acinetobacter baumannii
Protocol: (§1) The MIC for ampicillin or gentamicin against each isolate was determined for each test to serve as an internal quality control. The MICs of isolates were determined by visual reading and using an EnSpire Multimode Plate Reader 2300 atA600nm.
(§2) Briefly, antimicrobial stock solutions for robenidine and PMBN were prepared at a concentration of 12.8 mg/ml in DMSO. […] A 1 μl aliquot of the first compound from each combination was dispensed along the abscissa (from row A to G) of the 96-well microplate, while the second compound was dispensed along the ordinate (from column 12 to column 3) using an electronic multichannel pipette followed by 89 μl of LB broth. Each well of the plate was inoculated with an aliquot of 10 μl bacterial suspension at a concentration of 1-5 × 10^6 colony forming units (CFU) per ml. Subsequently, the plate was incubated at 37°C for 24 h. The fractional inhibitory concentration index (FICI) described the results of the combinations, and was calculated utilizing the following formula:
(§3) DRI = MIC of drug alone/MIC of drug in combination

A. baumannii ATCC 19606 = assay: microbe, parasite or virus in culture; conditions: for MIC: Acinetobacter baumannii
Protocol: as §1, §2, §3

[1] = tested on: A. calcoaceticus (human clinical isolate); assay: microbe, parasite or virus in culture; conditions: for MIC: Acinetobacter calcoaceticus
Protocol: as §1, §2, §3

E. coli ATCC 11229 = assay: microbe, parasite or virus in culture; conditions: for MIC: Escherichia coli
Protocol: as §1, §2, §3

E. coli ATCC 25922 = assay: microbe, parasite or virus in culture; conditions: for MIC: Escherichia coli
Protocol: as §1, §2, §3

K. pneumoniae ATCC 13883 = assay: microbe, parasite or virus in culture; conditions: for MIC: Klebsiella pneumoniae
Protocol: as §1, §2, §3

P. aeruginosa ATCC 27853 = assay: microbe, parasite or virus in culture; conditions: for MIC: Pseudomonas aeruginosa
Protocol: as §1, §2, §3

P. mirabilis ATCC 43071 = assay: microbe, parasite or virus in culture; conditions: for MIC: Proteus mirabilis
Protocol: as §1, §2, §3

P. putida ATCC 17428 = assay: microbe, parasite or virus in culture; conditions: for MIC: Pseudomonas putida
Protocol: as §1, §2, §3

[2] = tested on: P. aeruginosa (n = 30) clinical isolates from otitis externa cases in dogs; assay: MIC/MBC and checkerboard, canine otitis externa isolates; type: cell-based, Pseudomonas aeruginosa; conditions: for MIC50 / MIC90: Pseudomonas aeruginosa
Source text: (§4) Escherichia coli ATCC 25922, E. coli ATCC 11229, P. aeruginosa ATCC 27853, P. aeruginosa PA01, Pseudomonas putida ATCC 17428, P. mirabilis ATCC 43071, K. pneumoniae ATCC 13883, A. baumannii ATCC 19606, and A. baumannii ATCC 12457 were used for preliminary susceptibility testing and combination experiments. S. aureus ATCC 29213 and S. pneumoniae ATCC 49619 were used as internal quality controls. A variety of bacterial organisms from both human and canine infections were investigated in this study (n = 119 isolates in total). Twenty-eight clinical Acinetobacter spp. isolates were obtained from cases of human skin and soft tissue infections, including 18 Acinetobacter baumannii and 10 A. calcoaceticus, kindly provided by a person (Institute of Medical and Veterinary Science, South Australia). […] Ninety-one clinical isolates were obtained from cases of canine otitis externa, including seven methicillin-susceptible S. pseudintermedius (MSSP), 13 multidrug- and methicillin-resistant S. pseudintermedius (MRSP) ([Saputra et al., 2017]), 20 beta-haemolytic Streptococcus spp., 30 P. aeruginosa (10 of them resistant to gentamicin and 21 P. mirabilis isolates). These isolates were obtained from the bacterial collection of the national survey of antimicrobial resistance in animals conducted in Australia. Swab samples from dogs with signs of otitis externa were collected by veterinarians and submitted to government, private or university diagnostic laboratories throughout Australia. After routine bacterial identification and the removal of confidential information, the participating veterinary diagnostic laboratories submitted the bacteria and their clinical information to PC2 Laboratories, Australian Centre for Antimicrobial Resistance Ecology, School of Animal and Veterinary Sciences, University of Adelaide, Roseworthy Campus, Roseworthy, SA, Australia, for further study. Thus, animal ethics approval was not required in this study. These organisms were identified to species level using biochemical testing and MALDI-TOF mass spectrometry (Bruker, Preston, VIC, Australia).
as §1
(§5) Briefly, 10 μl aliquots from each duplicate well from the MIC assays (starting from the MIC for each compound) were inoculated onto a sheep blood agar (SBA) plate and incubated at 37°C.
as §2, §3

[3] = tested on: Beta-haemolytic streptococci (n = 20) clinical isolates from otitis externa cases in dogs; assay: as above; type: cell-based, beta-haemolytic Streptococcus spp.; conditions: for MIC50 / MIC90: Streptococcus
Source text: as §4, §1, §5, §2, §3

[4] = canine otitis externa, read-out: MIC50, single drug
[5] = canine otitis externa, read-out: MIC90, single drug
[6] = read-out: MIC50, single drug (mM in parentheses)
[7] = read-out: MIC90, single drug (mM in parentheses)
[8] = concentration of the labelled component

MIC in combination EDTA:ROB (mM in parentheses) (A. baumannii ATCC 12457; A. baumannii ATCC 12457, EDTA component): 0.25 mM | MIC in combination EDTA:ROB (A. baumannii ATCC 12457; A. baumannii ATCC 12457, concentration of the labelled component): 95 µg/mL | MIC (A. baumannii ATCC 12457; ATCC12457, read-out: MIC, single drug): 190 µg/mL | MIC (A. baumannii ATCC 12457; ATCC12457, read-out: MIC, single drug (mM in parentheses)): 0.5 mM | MIC in combination EDTA:ROB (mM in parentheses) (A. baumannii ATCC 19606; A. baumannii ATCC 19606, EDTA component): 0.5 mM | MIC in combination EDTA:ROB (A. baumannii ATCC 19606; A. baumannii ATCC 19606, concentration of the labelled component): 190 µg/mL | MIC (A. baumannii ATCC 19606; ATCC19606, read-out: MIC, single drug): 380 µg/mL | MIC (A. baumannii ATCC 19606; ATCC19606, read-out: MIC, single drug (mM in parentheses)): 1 mM | MIC in combination EDTA:ROB (mM in parentheses) ([1]; A. calcoaceticus human clinical isolate, EDTA component): 0.6 mM | MIC in combination EDTA:ROB ([1]; A. calcoaceticus human clinical isolate, concentration of the labelled component): 228 µg/mL | MIC ([1]; read-out: MIC, single drug): 228 µg/mL | MIC ([1]; read-out: MIC, single drug (mM in parentheses)): 0.6 mM | MIC in combination EDTA:ROB (mM in parentheses) (E. coli ATCC 11229; E. coli ATCC 11229, EDTA component): 0.6 mM | MIC in combination EDTA:ROB (E. coli ATCC 11229; E. coli ATCC 11229, concentration of the labelled component): 228 µg/mL | MIC (E. coli ATCC 11229; ATCC11229, read-out: MIC, single drug): 950 µg/mL | MIC (E. coli ATCC 11229; ATCC11229, read-out: MIC, single drug (mM in parentheses)): 2.5 mM | MIC in combination EDTA:ROB (mM in parentheses) (E. coli ATCC 25922; E. coli ATCC 25922, EDTA component): 2.5 mM | MIC in combination EDTA:ROB (E. coli ATCC 25922; E. coli ATCC 25922, concentration of the labelled component): 950 µg/mL | MIC (E. coli ATCC 25922; ATCC25922, read-out: MIC, single drug): 3800 µg/mL | MIC (E. coli ATCC 25922; ATCC25922, read-out: MIC, single drug (mM in parentheses)): 10 mM | MIC in combination EDTA:ROB (mM in parentheses) (K. pneumoniae ATCC 13883; K. pneumoniae ATCC 13883, EDTA component): 10 mM | MIC in combination EDTA:ROB (K. pneumoniae ATCC 13883; K. pneumoniae ATCC 13883, concentration of the labelled component): 3800 µg/mL | MIC (K. pneumoniae ATCC 13883; ATCC13883, read-out: MIC, single drug): 11400 µg/mL | MIC (K. pneumoniae ATCC 13883; ATCC13883, read-out: MIC, single drug (mM in parentheses)): 30 mM | MIC in combination EDTA:ROB (mM in parentheses) (P. aeruginosa ATCC 27853; P. aeruginosa ATCC 27853, EDTA component): 5 mM | MIC in combination EDTA:ROB (P. aeruginosa ATCC 27853; P. aeruginosa ATCC 27853, concentration of the labelled component): 1900 µg/mL | MIC (P. aeruginosa ATCC 27853; ATCC27853, read-out: MIC, single drug): 3800 µg/mL | MIC (P. aeruginosa ATCC 27853; ATCC27853, read-out: MIC, single drug (mM in parentheses)): 10 mM | MIC in combination EDTA:ROB (mM in parentheses) (P. mirabilis ATCC 43071; P. mirabilis ATCC 43071, EDTA component): 0.6 mM | MIC in combination EDTA:ROB (P. mirabilis ATCC 43071; P. mirabilis ATCC 43071, concentration of the labelled component): 228 µg/mL | MIC (P. mirabilis ATCC 43071; ATCC43071, read-out: MIC, single drug): 228 µg/mL | MIC (P. mirabilis ATCC 43071; ATCC43071, read-out: MIC, single drug (mM in parentheses)): 0.6 mM | MIC in combination EDTA:ROB (mM in parentheses) (P. putida ATCC 17428; P. putida ATCC 17428, EDTA component): 2.5 mM | MIC in combination EDTA:ROB (P. putida ATCC 17428; P. putida ATCC 17428, concentration of the labelled component): 950 µg/mL | MIC (P. putida ATCC 17428; ATCC17428, read-out: MIC, single drug): 1900 µg/mL | MIC (P. putida ATCC 17428; ATCC17428, read-out: MIC, single drug (mM in parentheses)): 5 mM | MBC/MIC row, EDTA in combination [2]: 750 µg/mL | MBC/MIC row, EDTA in combination (mM in parentheses) [2]: 2 mM | MIC range, single drug (mM in parentheses) [2]: 2 to 12 mM | MIC50, in combination of EDTA and ROB (mM in parentheses) ([2]; EDTA component): 4 mM | MIC90, in combination of EDTA and ROB (mM in parentheses) ([2]; EDTA component): 4 mM | MIC range, in combination of EDTA and ROB (mM in parentheses) ([2]; EDTA component): 1 to 4 mM | MIC50 [2, 4]: 3000 µg/mL | MIC90 [2, 5]: 3000 µg/mL | MIC50 [2, 6]: 8 mM | MIC90 [2, 7]: 8 mM | MIC range, single drug ([2]; canine otitis externa): 750 to 4500 µg/mL | MIC50, in combination of EDTA and ROB [2, 8]: 1500 µg/mL | MIC90, in combination of EDTA and ROB [2, 8]: 1500 µg/mL | MIC range, in combination of EDTA and ROB [2, 8]: 380 to 1500 µg/mL
Structure (SMILES): O=C(O)CN(CCN(CC(=O)O)CC(=O)O)CC(=O)O [EDTA, ethylenediaminetetraacetic acid]
DRI EDTA:ROB (A. baumannii ATCC 12457; A. baumannii ATCC 12457, DRI of the labelled component): 2 | DRI EDTA:ROB (A. baumannii ATCC 19606; A. baumannii ATCC 19606, DRI of the labelled component): 2 | DRI EDTA:ROB ([1]; A. calcoaceticus human clinical isolate, DRI of the labelled component): 1 | DRI EDTA:ROB (E. coli ATCC 11229; E. coli ATCC 11229, DRI of the labelled component): 4 | DRI EDTA:ROB (E. coli ATCC 25922; E. coli ATCC 25922, DRI of the labelled component): 4 | DRI EDTA:ROB (K. pneumoniae ATCC 13883; K. pneumoniae ATCC 13883, DRI of the labelled component): 3 | DRI EDTA:ROB (P. aeruginosa ATCC 27853; P. aeruginosa ATCC 27853, DRI of the labelled component): 2 | DRI EDTA:ROB (P. mirabilis ATCC 43071; P. mirabilis ATCC 43071, DRI of the labelled component): 1 | DRI EDTA:ROB (P. putida ATCC 17428; P. putida ATCC 17428, DRI of the labelled component): 2 | MBC/MIC row, EDTA in combination [3]: 750 µg/mL | MBC/MIC row, EDTA in combination (mM in parentheses) [3]: 2 mM | MIC range, single drug (mM in parentheses) [3]: 0.5 to 2 mM | MIC50, in combination of EDTA and ROB (mM in parentheses) ([3]; EDTA component): 0.5 mM | MIC90, in combination of EDTA and ROB (mM in parentheses) ([3]; EDTA component): 1 mM | MIC range, in combination of EDTA and ROB (mM in parentheses) ([3]; EDTA component): 0.25 to 1 mM | MIC50 [3, 4]: 380 µg/mL | MIC90 [3, 5]: 750 µg/mL | MIC50 [3, 6]: 1 mM | MIC90 [3, 7]: 2 mM | MIC range, single drug ([3]; canine otitis externa): 190 to 750 µg/mL | MIC50, in combination of EDTA and ROB [3, 8]: 190 µg/mL | MIC90, in combination of EDTA and ROB [3, 8]: 380 µg/mL | MIC range, in combination of EDTA and ROB [3, 8]: 95 to 380 µg/mL
